In patent US20050256132A1, “Use of ER selective NF-kB inhibitors for the treatment of sepsis” (priority 2003, published 2005):
Where two headings read alike, the source gives them in different places.

Assays:
ER/IL-6 = assay: Endothelial Cell ER/IL-6 Assay, IL-6 promoter luciferase (Table 2); type: cell-based, human; details: ERα infected HAECT-1 cells, IL-1β; for IC50: read-out: IL6 luc IC50; for Emax: read-out: IL6 luc % Efficacy
Experimental: (§1) T-175 flasks of 100% confluent HAECT-1 cells (immortalized human aortic endothelial cells) were washed with 8 ml of HBSS (HEPES buffered saline solution) and infected for fours hours with 6 ml of a 1:10 dilution of Ad5-wt-hERα virus (an adenovirus transfection vector that mediates CMV promoter driven expression of human ERα) in phenol red free Endothelial Cell Basal medium (Clonetics, San Diego, Calif., Catalog # CC-3129) containing 0.25% bovine serum albumin (EDM-BSA). After four hours, cells were washed with EDM-BSA and incubated overnight in the same medium. Following overnight incubation, cells were washed with EDM-BSA and infected for 2 hours with 6 ml of a 1:10 dilution of Ad5-3x(NFκB).Luc virus (Adenovirus luciferase expression vector driven by three repeats of the MHC NFκb sites 5′ to the thymidine kinase promoter) in EDM-BSA. After two hours, cells were washed and incubated at 34° C. for one hour. Cells were then washed, trypsinized, counted, and resuspended in 95% FBS/5% dimethylsulfoxide at a concentration of […], frozen as 1 or 5 ml aliquots in cryo-vials and stored at −150° C. Control (no ER infection) cells were processed as above without Ad5-wt-hERα virus infection.
(§2) ERα infected HAECT-1 cells or control cells were thawed, diluted 42× in warm EBM-BSA, plated into 96-well plates at 0.1 ml/well and incubated for 4 hours at 34° C. Test compounds were added to the cells at 2× stocks in EBM-BSA containing 2 ng/ml IL-1β Ad6-IL-6(1250 bp).Luc virus and plates were returned to the incubator (34° C.). After […], cells were lysed with 50 μl of Promega Cell Culture Lysis reagenet for about 5 minutes at room temperature on a shaker. After lysing, 15 μl of lysate is transferred to luminometer plates for luciferase determination. Luciferase activity is evaluated using a Perkin Elmer Victor2 1420 multilabel counter. Creatine kinase was determined from the rate of increase in A340 following addition of 100 μl of CK assay reagent (Sigma catalog no. 47-10) to the remainder of the cell lysate.
(§3) For IC50 and EC50 calculations, mean IL-6, luciferase or CK values versus log10 of the compound concentration were fitted to a four parameter logistic equation. The IC50/EC50 value, ‘Hill slope,’ upper and lower limits of the curve were iteratively estimated.

CK = assay: Creatine kinase assay in ERα infected HAECT-1 cells (Table 2); type: cell-based, human
Experimental: as §1, §2, §3

Compound	IC50 (ER/IL-6) [µM]	EC50 (CK) [µM]	IC50 (ER/IL-6; Homo sapiens, HAECT1) [µM]	EC50 (CK; Homo sapiens, HAECT1) [µM]	melting point [°C]	IL6 luc % Efficacy (ER/IL-6) [%]	CK % Efficacy (CK) [%]	Emax (ER/IL-6; Homo sapiens, HAECT1) [%]
COC(=O)[C@@](C)(C#N)[C@H](c1cnc2ccccc2c1)c1ccccc1OC [Example 163, Methyl (SS,RR)-2-cyano-3-(2-methoxyphenyl)-2-methyl-3-(quinolin-3-yl)propanoate]	0.00295	–	–	–	–	−32	−12	–
COc1ccccc1C(c1cccc2ccccc12)C(C#N)(Cc1cccnc1)C(=O)N1CCN(c2ncccn2)CC1 (stereo not drawn) [Example 174, (RR,SS)-3-(2-methoxyphenyl)-3-(1-naphthyl)-2-(pyridin-3-ylmethyl)-2-[(4-pyrimidin-2-ylpiperazin-1-yl)carbonyl]propanenitrile]	1.81	–	–	–	–	49	34	–
COC[C@@](C#N)(C(=O)N1CCN(C2CCCCC2)CC1)[C@@H](c1ccccc1OC)c1cccc2ccccc12 [Example 222, (2R,3R)-3-(4-cyclohexylpiperazin-1-yl)-2-(methoxymethyl)-2-[(2-methoxyphenyl)(1-naphthyl)methyl]-3-oxopropanenitrile]	0.304	0.033	–	–	–	170	–	–
COCC(C#N)(C(=O)N1CCN(C2CCCCC2)CC1)C(c1ccccc1OC)c1cccc2ccccc12 (stereo not drawn) [Example 209, (RR,SS)-3-(4-cyclohexylpiperazin-1-yl)-2-(methoxymethyl)-2-[(2-methoxyphenyl)(1-naphthyl)methyl]-3-oxopropanenitrile]	0.087	–	–	–	–	116	2	–
COCCOC[C@](C#N)(C(=O)OC)[C@H](c1ccccc1OC)c1cccc2ccccc12 (relative stereo) [Example 144, Methyl (2S*,3S*)-2-cyano-2-[(2-methoxyethoxy)methyl]-3-(2-methoxyphenyl)-3-(1-naphthyl)propanoate]	–	–	0.007	0.019	–	–	–	103
COc1ccccc1[C@H](c1cccc2ccccc12)[C@@](C)(C#N)C(=O)N1CCC2(CC1)OCCO2 [Example 188]	0.063	–	–	–	–	107	39	–
COc1ccccc1C(c1ccnc2ccccc12)C(C)(C#N)C(=O)N1CCC(c2cccc(C(F)(F)F)c2)CC1 (stereo not drawn) [Example 161, 3-(2-Methoxyphenyl)-2-methyl-3-quinolin-4-yl-2-({4-[3-(trifluoromethyl)phenyl]piperidin-1-yl}carbonyl)propanenitrile]	–	–	0.798	–	163 to 165	–	–	122
COc1ccccc1[C@H](c1cccc2ccccc12)[C@@](C)(C#N)C(=O)N1CCN(C2CCCCC2)CC1 [Example 196, (2S)-3-(4-cyclohexylpiperazin-1-yl)-2-[(s)-(2-methoxyphenyl)(1-naphthyl)methyl]-2-methyl-3-oxopropanenitrile]	–	–	0.07	–	137 to 138	–	–	142
COc1ccccc1[C@H](c1cccc2ccccc12)[C@@](C)(C#N)C(=O)N1CCC(C(C)=O)(c2ccccc2)CC1 [Example 195, (2S)-3-(4-acetyl-4-phenylpiperidin-1-yl)-2-[(S)-(2-methoxyphenyl)(1-naphthyl)methyl]-2-methyl-3-oxopropanenitrile]	–	–	0.71	–	134 to 135	–	–	74
COc1ccccc1[C@H](c1cccc2ccccc12)[C@@](C)(C#N)C(=O)N1CCC(N2C(=O)CCc3ccccc32)CC1 [Example 134, (2S,3S)-3-(2-methoxyphenyl)-2-methyl-3-(1-naphthyl)-2-{[4-(2-oxo-3,4-dihydroquinolin-1(2H)-yl)piperidin-1-yl]carbonyl}propanenitrile]	–	–	0.612	–	265 to 267	–	–	85
COc1ccccc1[C@H](c1cccc2ccccc12)[C@@](C)(C#N)C(=O)N1CCN(CC(=O)N2CCCC2)CC1 [Example 201, (2S,3S)-3-(2-methoxyphenyl)-2-methyl-3-(1-naphthyl)-2-{[4-(2-oxo-2-pyrrolidin-1-ylethyl)piperazin-1-yl]carbonyl}propanenitrile]	–	–	1.09	–	203	–	–	45

The next lines start with results.

IC50 (ER/IL-6) [µM]	EC50 (CK) [µM]	IC50 (ER/IL-6; Homo sapiens, HAECT1) [µM]	EC50 (CK; Homo sapiens, HAECT1) [µM]	melting point [°C]	Compound	IL6 luc % Efficacy (ER/IL-6) [%]	CK % Efficacy (CK) [%]	Emax (ER/IL-6; Homo sapiens, HAECT1) [%]
0.0056	0.064	–	–	–	COCC(C#N)(C(=O)N1CC=C(c2c[nH]c3ccccc23)CC1)C(c1ccccc1OC)c1cccc2ccccc12 (stereo not drawn) [Example 213, (RR,SS)-3-[4-(1H-indol-3-yl)-3,6-dihydropyridin-1(2H)-yl]-2-(methoxymethyl)-2-[(2-methoxyphenyl)(1-naphthyl)methyl]-3-oxopropanenitrile]	103	26	–
0.344	–	–	–	–	COc1ccccc1[C@@H](c1cccc2ccccc12)[C@@](C#N)(COCc1ccccc1)C(=O)N1CCN(c2cnccn2)CC1 [Example 220, (RR,SS)-2-[(benzyloxy)methyl]-3-(2-methoxyphenyl)-3-(1-naphthyl)-2-[(4-pyrazin-2-ylpiperazin-1-yl)carbonyl]propanenitrile]	128	6	–
0.157	–	–	–	–	COC[C@@](C#N)(C(=O)N1CCN(c2ncccn2)CC1)[C@@H](c1ccccc1OC)c1cccc2ccccc12 [Example 200, (RR,SS)-2-(methoxymethyl)-3-(2-methoxyphenyl)-3-(1-naphthyl)-2-[(4-pyrimidin-2-ylpiperazin-1-yl)carbonyl]propanenitrile]	162	13	–
0.22	0.138	–	–	–	COC[C@@](C#N)(C(=O)N1CC=C(c2c[nH]c3ccccc23)CC1)[C@@H](c1ccccc1OC)c1cccc2ccccc12 [Example 226]	115	18	–
0.114	–	–	–	–	COCCOCC(C#N)(C(=O)N1CC=C(c2c[nH]c3ccccc23)CC1)C(c1ccccc1OC)c1cccc2ccccc12 (stereo not drawn) [Example 172, (RR,SS)-3-[4-(1H-indol-3-yl)-3,6-dihydropyridin-1(2H)-yl]-2-[(2-methoxyethoxy)methyl]-2-[(S*)-(2-methoxyphenyl)(1-naphthyl)methyl]-3-oxopropanenitrile]	149	−13	–
–	–	–	–	160 to 164.4	COC(=O)[C@@](C#N)(Cc1cccnc1)[C@H](c1ccccc1OC)c1cccc2ccccc12 (relative stereo) [Example 145, Methyl (2S*,3S*)-2-cyano-3-(2-methoxyphenyl)-3-(1-naphthyl)-2-(pyridin-3-ylmethyl)propanoate]	–	–	102
–	–	0.006	–	166 to 170	COc1ccccc1[C@H](c1cccc2ccccc12)[C@](C#N)(COCc1ccccc1)C(=O)OC(C)(C)C (relative stereo) [Example 154, tert-Butyl (2S*,3S*)-2-[(benzyloxy)methyl]-2-cyano-3-(2-methoxyphenyl)-3-(1-naphthyl)propanoate]	–	–	87
–	–	0.268	–	136 to 137	COC[C@@](C#N)(C(=O)N1CCN(c2ncccn2)CC1)[C@@H](c1ccccc1OC)c1cccc2ccccc12 [Example 211, (2R,3R)-2-(methoxymethyl)-3-(2-methoxyphenyl)-3-(1-naphthyl)-2-[(4-pyrimidin-2-ylpiperazin-1-yl)carbonyl]propanenitrile]	–	–	78
–	–	0.016	–	140	COC[C@](C#N)(C(=O)N1CCN(c2ncccn2)CC1)[C@H](c1ccccc1OC)c1cccc2ccccc12 [Example 210, (2S,3S)-2-(methoxymethyl)-3-(2-methoxyphenyl)-3-(1-naphthyl)-2-[(4-pyrimidin-2-ylpiperazin-1-yl)carbonyl]propanenitrile]	–	–	132
–	–	0.348	–	172 to 174	COc1ccccc1[C@H](c1cccc2ccccc12)[C@@](C)(C#N)C(=O)N1CCc2[nH]c3ccc(F)cc3c2C1 [Example 189, (2S)-3-(8-fluoro-1,3,4,5-tetrahydro-2H-pyrido[4,3-b]indol-2-yl)-2-[(S)-(2-methoxyphenyl)(1-naphthyl)methyl]-2-methyl-3-oxopropanenitrile]	–	–	103
–	–	0.113	–	212 to 213	COc1ccccc1[C@H](c1cccc2ccccc12)[C@@](C)(C#N)C(=O)N1CCc2c([nH]c3ccccc23)C1 [Example 190, (2S,3S)-3-(2-methoxyphenyl)-2-methyl-3-(1-naphthyl)-2-(1,3,4,9-tetrahydro-2H-beta-carbolin-2-ylcarbonyl)propanenitrile]	–	–	–
